# In patent US9248089B2, “Peptide-based compounds as inhibitors of neurotransmitter secretion” (GRF (WUHAN) BIOTECHNOLOGY INC., priority 2011, dated 2016):
# Peptide text beside a SMILES is read from it.
# System: HEK293 cells
# Experiment: HEK293 cell assay (evaluation of biological degradation, HPLC of supernatant)
# Format: in vitro ADME, Human
# Settings: for Degradation after incubation with HEK293 cells: 37° C., 1.0×10^6 HEK293 cells; for Degradation after incubation with HEK293 cells / Degradation pattern/profile compared with another compound: HPLC condition D; for Degradation pattern/profile compared with another compound: incubation with HEK293 cells
# Method: The Human Embryonic Kidney 293 (HEK293) cells may be cultured in suspension. After the HEK293 cells are collected, the cells may be washed 3 times with PBS buffer before the assay.
# The stock solution of peptide-based compounds may be made by dissolving the compound in PBS buffers or in DMSO. Other solutions or solvents may be used to dissolve the peptide-based compounds for this assay.
# 2. Add 10 μL of the stock solution of the peptide-based compound prepared above so that the final concentration of the peptide-based compound is around 1/10th of that of the stock.
# 3. Incubate the resulting mixture at 37° C. for 3, 5, 10, 20, or 30 min.
# 4. Remove the cells by centrifugation.
# 5. Collect an aliquot of the supernatant solution (20 μL) and loaded it onto a reverse-phase HPLC column (3.9×150 Nova-Pak C18, Waters, Mass., USA) on an HPLC system (125 solvent module, System Gold, Beckman, Calif., USA). Peptide peaks may be detected at the wavelength of 220 nm (Diode Array Detector module 168, Beckman, Calif., USA).
Degradation after incubation with HEK293 cells (10 min incubation),Detectable Compound 2 as degradation intermediate (30 min incubation with HEK293 cells),Degradation after incubation with HEK293 cells (5 min incubation),Molecule,Degradation pattern/profile compared with another compound,Degradation after incubation with HEK293 cells (3 min incubation),Degradation after incubation with HEK293 cells (30 min incubation),Detectable Compound 2 as degradation intermediate (5 min incubation with HEK293 cells)
degraded to at least two fragments,–,–,"Ac-EEMQRR-NH2 [Compound 2, Ac-Glu-Glu-Met-Gln-Arg-Arg-NH2, reference compound]",did not give the same degradation pattern as Compound 1,–,–,–
–,No Compound 2 was detectable,–,"COC(=O)CC[C@H](NC(C)=O)C(=O)N[C@@H](CCC(=O)OC)C(=O)N[C@@H](CCSC)C(=O)N[C@@H](CCC(N)=O)C(=O)N[C@@H](CCCNC(=N)N)C(=O)N[C@@H](CCCNC(=N)N)C(N)=O [Compound 1, Ac-Glu(OMe)-Glu(OMe)-Met-Gln-Arg-Arg-NH2] (Ac-E(OMe)E(OMe)MQRR-NH2)",–,degraded to Compound 2 and at least one new fragment,fully degraded to at least one new fragment,–
completed degraded to the two fragments,–,degraded to at least two fragments,"COC(=O)CC[C@H](NC(C)=O)C(=O)N[C@@H](CCC(=O)OC)C(=O)N[C@@H](CCSC)C(=O)N[C@@H](CCC(N)=O)C(=O)N[C@@H](CCCNC(=NC(=O)OC(C)(C)C)NC(=O)OC(C)(C)C)C(=O)N[C@@H](CCCNC(=NC(=O)OC(C)(C)C)NC(=O)OC(C)(C)C)C(N)=O [Compound 3, Ac-Glu(OMe)-Glu(OMe)-Met-Gln-Arg(Boc)2-Arg(Boc)2-NH2]",degraded in the same pattern as Compound 2,–,–,did not produce detectable intermediacy of Compound 2
